Laboratory results: paper PMC6158578, “Optimization and Lead Selection of Benzothiazole Amide Analogs Toward a Novel Antimycobacterial Agent” (Frontiers in Microbiology, 2018)
Converted amounts (≈) assume the structure as drawn.

Legend:
Test in all cases: microbe, parasite or virus in culture
Type in all cases: cell-based, M. tuberculosis
Settings in all cases: Mycobacterium tuberculosis
[1] = test system: Rifampin-resistant Mtb strain 1
[2] = test system: Rifampin-resistant Mtb strain 2
[3] = test system: Isoniazid-resistant Mtb strain 1
[4] = test system: Isoniazid-resistant Mtb strain 2
[5] = test system: Fluoroquinolone-resistant Mtb

`CC12CC3CC(C)(C1)CC(C(=O)Nc1nc4ccc(OC(F)(F)F)cc4s1)(C3)C2` [CRS400226] showed an IC90 [1] of 3.9 µg/mL (≈ 9.19 µM), an IC90 [2] of 4.7 µg/mL (≈ 11.1 µM) and an IC90 [3] of 3.9 µg/mL (≈ 9.19 µM). The IC90 [4] was 4.2 µg/mL (≈ 9.89 µM) and the IC90 [5] was 3.7 µg/mL (≈ 8.72 µM).
